In ChEMBL document CHEMBL4715697, “Synthesis and biological activity of benzamide DNA minor groove binders” (2016):

Columns and labels:
Format in all cases: functional
IGROV-1 [1] = assay: Growth inhibition of human IGROV-1 cells assessed as cell growth at 1 uM incubated for 48 hrs by sulforhodamine B assay relative to control; settings: read-out: Activity
MDA-MB-435 [2] = assay: Growth inhibition of human MDA-MB-435 cells assessed as cell growth at 0.1 uM incubated for 48 hrs by sulforhodamine B assay relative to control; settings: read-out: Activity
CAKI-1 = assay: Growth inhibition of human CAKI-1 cells assessed as cell growth at 100 uM incubated for 48 hrs by sulforhodamine B assay relative to control; settings: read-out: Activity
MDA-MB-435 [3] = assay: Growth inhibition of human MDA-MB-435 cells assessed as cell growth at 1 uM incubated for 48 hrs by sulforhodamine B assay relative to control; settings: read-out: Activity
COLO 205 [4] = assay: Growth inhibition of human COLO 205 cells assessed as cell growth at 100 uM incubated for 48 hrs by sulforhodamine B assay relative to control; settings: read-out: Activity
SN12C = assay: Growth inhibition of human SN12C cells assessed as cell growth at 1 uM incubated for 48 hrs by sulforhodamine B assay relative to control; settings: read-out: Activity
MOLT-4 [5] = assay: Growth inhibition of human MOLT-4 cells assessed as cell growth at 0.1 uM incubated for 48 hrs by sulforhodamine B assay relative to control; settings: read-out: Activity
COLO 205 [6] = assay: Growth inhibition of human COLO 205 cells incubated for 48 hrs by sulforhodamine B assay
PC-3 [7] = assay: Growth inhibition of human PC-3 cells assessed as cell growth at 100 uM incubated for 48 hrs by sulforhodamine B assay relative to control; settings: read-out: Activity
SK-MEL-28 = assay: Growth inhibition of human SK-MEL-28 cells assessed as cell growth at 1 uM incubated for 48 hrs by sulforhodamine B assay relative to control; settings: read-out: Activity
MCF7 = assay: Growth inhibition of human MCF7 cells assessed as cell growth at 0.1 uM incubated for 48 hrs by sulforhodamine B assay relative to control; settings: read-out: Activity
T47D [8] = assay: Growth inhibition of human T47D cells assessed as cell growth at 1 uM incubated for 48 hrs by sulforhodamine B assay relative to control; settings: read-out: Activity
SK-MEL-2 = assay: Growth inhibition of human SK-MEL-2 cells assessed as cell growth at 1 uM incubated for 48 hrs by sulforhodamine B assay relative to control; settings: read-out: Activity
EKVX = assay: Growth inhibition of human EKVX cells incubated for 48 hrs by sulforhodamine B assay
TK-10 = assay: Growth inhibition of human TK-10 cells assessed as cell growth at 100 uM incubated for 48 hrs by sulforhodamine B assay relative to control; settings: read-out: Activity
PC-3 [9] = assay: Growth inhibition of human PC-3 cells assessed as cell growth at 0.1 uM incubated for 48 hrs by sulforhodamine B assay relative to control; settings: read-out: Activity
NCI-H522 = assay: Growth inhibition of human NCI-H522 cells assessed as cell growth at 0.01 uM incubated for 48 hrs by sulforhodamine B assay relative to control; settings: read-out: Activity
SF-539 = assay: Growth inhibition of human SF-539 cells incubated for 48 hrs by sulforhodamine B assay
NCI-H460 = assay: Growth inhibition of human NCI-H460 cells assessed as cell growth at 0.1 uM incubated for 48 hrs by sulforhodamine B assay relative to control; settings: read-out: Activity
UACC-62 = assay: Growth inhibition of human UACC-62 cells assessed as cell growth at 0.1 uM incubated for 48 hrs by sulforhodamine B assay relative to control; settings: read-out: Activity
Malme-3M = assay: Growth inhibition of human Malme-3M cells incubated for 48 hrs by sulforhodamine B assay
PC-3 [10] = assay: Growth inhibition of human PC-3 cells assessed as cell growth at 0.01 uM incubated for 48 hrs by sulforhodamine B assay relative to control; settings: read-out: Activity
786-0 = assay: Growth inhibition of human 786-0 cells assessed as cell growth at 100 uM incubated for 48 hrs by sulforhodamine B assay relative to control; settings: read-out: Activity
KM12 = assay: Growth inhibition of human KM12 cells incubated for 48 hrs by sulforhodamine B assay
M14 [11] = assay: Growth inhibition of human M14 cells assessed as cell growth at 1 uM incubated for 48 hrs by sulforhodamine B assay relative to control; settings: read-out: Activity
SNB-75 = assay: Growth inhibition of human SNB-75 cells assessed as cell growth at 0.01 uM incubated for 48 hrs by sulforhodamine B assay relative to control; settings: read-out: Activity
DU-145 = assay: Growth inhibition of human DU-145 cells assessed as cell growth at 0.01 uM incubated for 48 hrs by sulforhodamine B assay relative to control; settings: read-out: Activity
MDA-MB-468 = assay: Growth inhibition of human MDA-MB-468 cells assessed as cell growth at 0.1 uM incubated for 48 hrs by sulforhodamine B assay relative to control; settings: read-out: Activity
IGROV-1 [12] = assay: Growth inhibition of human IGROV-1 cells assessed as cell growth at 0.01 uM incubated for 48 hrs by sulforhodamine B assay relative to control; settings: read-out: Activity
RPMI-8226 = assay: Growth inhibition of human RPMI-8226 cells assessed as cell growth at 1 uM incubated for 48 hrs by sulforhodamine B assay relative to control; settings: read-out: Activity
M14 [13] = assay: Growth inhibition of human M14 cells incubated for 48 hrs by sulforhodamine B assay
SF-295 = assay: Growth inhibition of human SF-295 cells assessed as cell growth at 0.01 uM incubated for 48 hrs by sulforhodamine B assay relative to control; settings: read-out: Activity
MOLT-4 [14] = assay: Growth inhibition of human MOLT-4 cells assessed as cell growth at 1 uM incubated for 48 hrs by sulforhodamine B assay relative to control; settings: read-out: Activity
HCT-15 = assay: Growth inhibition of human HCT-15 cells assessed as cell growth at 100 uM incubated for 48 hrs by sulforhodamine B assay relative to control; settings: read-out: Activity
T47D [15] = assay: Growth inhibition of human T47D cells assessed as cell growth at 0.1 uM incubated for 48 hrs by sulforhodamine B assay relative to control; settings: read-out: Activity
M14 [16] = assay: Growth inhibition of human M14 cells assessed as cell growth at 100 uM incubated for 48 hrs by sulforhodamine B assay relative to control; settings: read-out: Activity
[17] = read-out: LC50 (the source's name)
[18] = read-out: pLC50 (the source's name) (converted)

CC(=O)Nc1cc(CCl)cc(NC(=O)c2ccc(C(=O)Nc3cccc(NC(=O)CCCN(C)C)c3)cc2)c1
growth at 1 µM (IGROV-1 [1]): 110%
growth at 0.1 µM (MDA-MB-435 [2]): 93%
growth at 100 µM (CAKI-1): 100%
growth at 1 µM (MDA-MB-435 [3]): 97%
growth at 100 µM (COLO 205 [4]): 100%
growth at 1 µM (SN12C): 105%
growth at 0.1 µM (MOLT-4 [5]): 95%
GI50 (COLO 205 [6]; read-out: GI50): > 100 µM
LC50 (COLO 205 [6]; read-out: LC50): > 100 µM
TGI (COLO 205 [6]; read-out: TGI): > 100 µM
GI50 (COLO 205 [6]; read-out: pGI50 (converted)): > 100 µM
LC50 (COLO 205 [6]; read-out: pLC50 (converted)): > 100 µM
TGI (COLO 205 [6]; read-out: pTGI): > 100 µM
growth at 100 µM (PC-3 [7]): 88%
growth at 1 µM (SK-MEL-28): 96%
growth at 0.1 µM (MCF7): 87%
growth at 1 µM (T47D [8]): 94%
growth at 1 µM (SK-MEL-2): 109%
GI50 (EKVX; read-out: GI50): > 100 µM
LC50 (EKVX; read-out: LC50): > 100 µM
TGI (EKVX; read-out: TGI): > 100 µM
GI50 (EKVX; read-out: pGI50 (converted)): > 100 µM
LC50 (EKVX; read-out: pLC50 (converted)): > 100 µM
TGI (EKVX; read-out: pTGI): > 100 µM
growth at 100 µM (TK-10): 129%
growth at 0.1 µM (PC-3 [9]): 103%
growth at 0.01 µM (NCI-H522): 96%
GI50 (SF-539; read-out: GI50): > 100 µM
CC50 (SF-539; [17]): > 100 µM
TGI (SF-539; read-out: TGI): > 100 µM
GI50 (SF-539; read-out: pGI50 (converted)): > 100 µM
CC50 (SF-539; [18]): > 100 µM
TGI (SF-539; read-out: pTGI): > 100 µM
growth at 0.1 µM (NCI-H460): 106%
growth at 0.1 µM (UACC-62): 103%
GI50 (Malme-3M; read-out: GI50): > 100 µM
LC50 (concentration killing 50% of cells) (Malme-3M; read-out: LC50): > 100 µM
TGI (Malme-3M; read-out: TGI): > 100 µM
GI50 (Malme-3M; read-out: pGI50 (converted)): > 100 µM
LC50 (concentration killing 50% of cells) (Malme-3M; read-out: pLC50 (converted)): > 100 µM
TGI (Malme-3M; read-out: pTGI): > 100 µM
growth at 0.01 µM (PC-3 [10]): 104%
growth at 100 µM (786-0): 122%
GI50 (KM12; read-out: GI50): > 100 µM
CC50 (KM12; [17]): > 100 µM
TGI (KM12; read-out: TGI): > 100 µM
GI50 (KM12; read-out: pGI50 (converted)): > 100 µM
CC50 (KM12; [18]): > 100 µM
TGI (KM12; read-out: pTGI): > 100 µM
growth at 1 µM (M14 [11]): 103%
growth at 0.01 µM (SNB-75): 82%
growth at 0.01 µM (DU-145): 106%
growth at 0.1 µM (MDA-MB-468): 84%
growth at 0.01 µM (IGROV-1 [12]): 113%
growth at 1 µM (RPMI-8226): 116%
GI50 (M14 [13]; read-out: GI50): > 100 µM
CC50 (M14 [13]; [17]): > 100 µM
TGI (M14 [13]; read-out: TGI): > 100 µM
GI50 (M14 [13]; read-out: pGI50 (converted)): > 100 µM
CC50 (M14 [13]; [18]): > 100 µM
TGI (M14 [13]; read-out: pTGI): > 100 µM
growth at 0.01 µM (SF-295): 74%
growth at 1 µM (MOLT-4 [14]): 99%
growth at 100 µM (HCT-15): 84%
growth at 0.1 µM (T47D [15]): 103%
growth at 100 µM (M14 [16]): 91%
